In ChEMBL document CHEMBL3044671, “Synthesis and in vitro antimicrobial and anti-tubercular evaluation of some quinoline-based azitidinone and thiazolidinone analogues” (2013):
In brackets after ≈: the same amount, converted by molar mass.

Key:
Format in all cases: functional
Pseudomonas aeruginosa [1] = assay: Antimicrobial activity against Pseudomonas aeruginosa MTCC 741 assessed as growth inhibition by agar streak dilution method
Aspergillus niger [2] = assay: Antimicrobial activity against Aspergillus niger MTCC 282 assessed as diameter of growth zone inhibition by agar streak dilution method
[3] = system: Mycobacterium tuberculosis; assay: Antitubercular activity against Mycobacterium tuberculosis H37Rv assessed as growth inhibition by BACTEC MGIT method
Aspergillus niger [4] = assay: Antimicrobial activity against Aspergillus niger MTCC 282 assessed as growth inhibition by agar streak dilution method
Candida albicans [5] = assay: Antimicrobial activity against Candida albicans MTCC 183 assessed as growth inhibition by agar streak dilution method
Staphylococcus aureus [6] = assay: Antimicrobial activity against Staphylococcus aureus MTCC 96 assessed as diameter of growth zone inhibition by agar streak dilution method
Bacillus subtilis [7] = assay: Antimicrobial activity against Bacillus subtilis MTCC 430 assessed as diameter of growth zone inhibition by agar streak dilution method
Escherichia coli [8] = assay: Antimicrobial activity against Escherichia coli MTCC 739 assessed as diameter of growth zone inhibition by agar streak dilution method
Candida albicans [9] = assay: Antimicrobial activity against Candida albicans MTCC 183 assessed as diameter of growth zone inhibition by agar streak dilution method
Staphylococcus aureus [10] = assay: Antimicrobial activity against Staphylococcus aureus MTCC 96 assessed as growth inhibition by agar streak dilution method
Escherichia coli [11] = assay: Antimicrobial activity against Escherichia coli MTCC 739 assessed as growth inhibition by agar streak dilution method
Pseudomonas aeruginosa [12] = assay: Antimicrobial activity against Pseudomonas aeruginosa MTCC 741 assessed as diameter of growth zone inhibition by agar streak dilution method
Bacillus subtilis [13] = assay: Antimicrobial activity against Bacillus subtilis MTCC 430 assessed as growth inhibition by agar streak dilution method

SMILES	MIC (Pseudomonas aeruginosa [1])	diameter of the inhibition zone (DIZ) (Aspergillus niger [2])	MIC [3]	MIC (Aspergillus niger [4])	MIC (Candida albicans [5])	diameter of the inhibition zone (DIZ) (Staphylococcus aureus [6])	diameter of the inhibition zone (DIZ) (Bacillus subtilis [7])	diameter of the inhibition zone (DIZ) (Escherichia coli [8])	diameter of the inhibition zone (DIZ) (Candida albicans [9])	MIC (Staphylococcus aureus [10])	MIC (Escherichia coli [11])	diameter of the inhibition zone (DIZ) (Pseudomonas aeruginosa [12])	MIC (Bacillus subtilis [13])
Cc1cnc(N2C(=O)C(Cl)C2c2cc3ccccc3nc2S)s1 (stereo not drawn)	100 µg/mL (≈ 276 µM)	22 mm	125 µg/mL (≈ 345 µM)	50 µg/mL (≈ 138 µM)	62.5 µg/mL (≈ 173 µM)	24 mm	22 mm	24 mm	24 mm	25 µg/mL (≈ 69.1 µM)	12.5 µg/mL (≈ 34.5 µM)	22 mm	6.25 µg/mL (≈ 17.3 µM)
O=C1CSC(c2cc3ccccc3nc2S)N1c1ccccc1 (stereo not drawn)	100 µg/mL (≈ 295 µM)	16 mm	1000 µg/mL (≈ 2950 µM)	100 µg/mL (≈ 295 µM)	100 µg/mL (≈ 295 µM)	19 mm	17 mm	16 mm	15 mm	100 µg/mL (≈ 295 µM)	100 µg/mL (≈ 295 µM)	17 mm	100 µg/mL (≈ 295 µM)
Cc1ccccc1N1C(=O)CSC1c1cc2ccccc2nc1S (stereo not drawn)	1000 µg/mL (≈ 2840 µM)	16 mm	500 µg/mL (≈ 1420 µM)	100 µg/mL (≈ 284 µM)	100 µg/mL (≈ 284 µM)	20 mm	15 mm	15 mm	17 mm	100 µg/mL (≈ 284 µM)	100 µg/mL (≈ 284 µM)	14 mm	100 µg/mL (≈ 284 µM)
Cc1cccc(N2C(=O)CSC2c2cc3ccccc3nc2S)c1 (stereo not drawn)	100 µg/mL (≈ 284 µM)	20 mm	500 µg/mL (≈ 1420 µM)	100 µg/mL (≈ 284 µM)	100 µg/mL (≈ 284 µM)	21 mm	19 mm	19 mm	19 mm	62.5 µg/mL (≈ 177 µM)	100 µg/mL (≈ 284 µM)	18 mm	100 µg/mL (≈ 284 µM)
Cc1ccc(N2C(=O)CSC2c2cc3ccccc3nc2S)cc1 (stereo not drawn)	100 µg/mL (≈ 284 µM)	17 mm	250 µg/mL (≈ 709 µM)	100 µg/mL (≈ 284 µM)	100 µg/mL (≈ 284 µM)	20 mm	20 mm	19 mm	15 mm	100 µg/mL (≈ 284 µM)	100 µg/mL (≈ 284 µM)	19 mm	100 µg/mL (≈ 284 µM)
O=C1CSC(c2cc3ccccc3nc2S)N1c1ccccc1[N+](=O)[O-] (stereo not drawn)	25 µg/mL (≈ 65.2 µM)	23 mm	250 µg/mL (≈ 652 µM)	50 µg/mL (≈ 130 µM)	62.5 µg/mL (≈ 163 µM)	22 mm	23 mm	23 mm	22 mm	62.5 µg/mL (≈ 163 µM)	62.5 µg/mL (≈ 163 µM)	23 mm	62.5 µg/mL (≈ 163 µM)
O=C1CSC(c2cc3ccccc3nc2S)N1c1cccc([N+](=O)[O-])c1 (stereo not drawn)	25 µg/mL (≈ 65.2 µM)	23 mm	125 µg/mL (≈ 326 µM)	25 µg/mL (≈ 65.2 µM)	100 µg/mL (≈ 261 µM)	22 mm	22 mm	24 mm	20 mm	50 µg/mL (≈ 130 µM)	6.25 µg/mL (≈ 16.3 µM)	23 mm	50 µg/mL (≈ 130 µM)
O=C1CSC(c2cc3ccccc3nc2S)N1c1ccc([N+](=O)[O-])cc1 (stereo not drawn)	12.5 µg/mL (≈ 32.6 µM)	25 mm	62.5 µg/mL (≈ 163 µM)	25 µg/mL (≈ 65.2 µM)	100 µg/mL (≈ 261 µM)	23 mm	23 mm	23 mm	18 mm	12.5 µg/mL (≈ 32.6 µM)	6.25 µg/mL (≈ 16.3 µM)	24 mm	50 µg/mL (≈ 130 µM)
O=C1CSC(c2cc3ccccc3nc2S)N1c1ccccc1Cl (stereo not drawn)	62.5 µg/mL (≈ 168 µM)	21 mm	125 µg/mL (≈ 335 µM)	62.5 µg/mL (≈ 168 µM)	100 µg/mL (≈ 268 µM)	23 mm	25 mm	23 mm	22 mm	6.25 µg/mL (≈ 16.8 µM)	12.5 µg/mL (≈ 33.5 µM)	23 mm	12.5 µg/mL (≈ 33.5 µM)
O=C1CSC(c2cc3ccccc3nc2S)N1c1cccc(Cl)c1 (stereo not drawn)	12.5 µg/mL (≈ 33.5 µM)	25 mm	125 µg/mL (≈ 335 µM)	50 µg/mL (≈ 134 µM)	62.5 µg/mL (≈ 168 µM)	24 mm	25 mm	22 mm	22 mm	6.25 µg/mL (≈ 16.8 µM)	50 µg/mL (≈ 134 µM)	25 mm	3.12 µg/mL (≈ 8.37 µM)
O=C1CSC(c2cc3ccccc3nc2S)N1c1ccc(Cl)cc1 (stereo not drawn)	25 µg/mL (≈ 67 µM)	25 mm	62.5 µg/mL (≈ 168 µM)	12.5 µg/mL (≈ 33.5 µM)	100 µg/mL (≈ 268 µM)	25 mm	25 mm	23 mm	24 mm	6.25 µg/mL (≈ 16.8 µM)	25 µg/mL (≈ 67 µM)	24 mm	3.12 µg/mL (≈ 8.37 µM)
O=C1CSC(c2cc3ccccc3nc2S)N1c1ccc(F)cc1 (stereo not drawn)	50 µg/mL (≈ 140 µM)	26 mm	62.5 µg/mL (≈ 175 µM)	12.5 µg/mL (≈ 35.1 µM)	25 µg/mL (≈ 70.1 µM)	25 mm	25 mm	24 mm	26 mm	3.12 µg/mL (≈ 8.75 µM)	12.5 µg/mL (≈ 35.1 µM)	24 mm	6.25 µg/mL (≈ 17.5 µM)
Cc1cnc(N2C(=O)CSC2c2cc3ccccc3nc2S)s1 (stereo not drawn)	62.5 µg/mL (≈ 174 µM)	23 mm	62.5 µg/mL (≈ 174 µM)	62.5 µg/mL (≈ 174 µM)	62.5 µg/mL (≈ 174 µM)	24 mm	23 mm	24 mm	24 mm	12.5 µg/mL (≈ 34.8 µM)	12.5 µg/mL (≈ 34.8 µM)	23 mm	25 µg/mL (≈ 69.5 µM)
O=C(O)c1cn(C2CC2)c2cc(N3CCNCC3)c(F)cc2c1=O [CIPROFLOXACIN]	≤ 1 µg/mL					30 mm	31 mm	32 mm		≤ 1 µg/mL	≤ 1 µg/mL	33 mm	≤ 1 µg/mL
NNC(=O)c1ccncc1 [ISONIAZID]			0.2 µg/mL (≈ 1.46 µM)										
CC(=O)N1CCN(c2ccc(OCC3COC(Cn4ccnc4)(c4ccc(Cl)cc4Cl)O3)cc2)CC1 (stereo not drawn) [KETOCONAZOLE]		30 mm		≤ 3 µg/mL	≤ 1 µg/mL				33 mm				
CO[C@H]1/C=C/O[C@@]2(C)Oc3c(C)c(O)c4c(O)c(c(/C=N/N5CCN(C)CC5)c(O)c4c3C2=O)NC(=O)/C(C)=C\C=C\[C@H](C)[C@H](O)[C@@H](C)[C@@H](O)[C@@H](C)[C@H](OC(C)=O)[C@@H]1C [RIFAMPIN]			40 µg/mL (≈ 48.6 µM)										
